Assay in all cases: NCI anticancer screen, dose series, 48 h
Test [1] concerns LOX IMVI melanoma.
In test [2] the test system is SF-539 CNS.
For test [3], the system named is UACC-62 melanoma.
The subject of test [4] is MOLT-4 leukemia.
The test system of test [5] is MDA-MB-231 breast.
Test [6] has as its system KM12 colon.
Test [7] concerns HS 578T breast.
The test system of test [8] is A549 NSCLC.
For test [9], the system named is MCF7 breast.
The test system of test [10] is HL-60(TB) leukemia.

Each structure is given as a SMILES string. Values joined by “and” are separate entries in the source; they are usually repeats but may differ in a detail not shown here. Identical values can stand only once.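 Growth conditions: 96-well plates. Treatment: test compound, 48 hours, 5 concentrations. Analysis: linear interpolation between bracketing concentrations; unreached endpoints set to highest concentration. GI50 marks 50% less growth. TGI is the concentration that stops growth completely.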

`c1ccc(CCc2cccnc2)nc1`: the TGI in test [1], in [2], in test [3], in test [4], in [5] and in test [6] was above 100 µM in each case. Also, the TGI in [7], in test [8] and in test [9] was above 100 µM in each case.

With `CCN(CC)CCCCCCNc1cc(OC)cc2cccnc12`, the GI50 in test [1] was 1.74 µM; in test [2], 1.84 µM; in [3], 2.29 µM; in test [4], 1.84 µM; in [10], 1.94 µM; in test [6], 3.15 µM. The GI50 was 12.3 µM in [7], 4.35 µM in [8] and 1.74 µM in [9]. Also, the TGI in test [1] was 3.31 µM; in test [2], 3.53 µM; in test [3] it was 5.16 µM; in test [4], 3.86 µM; in [10], 4.03 µM; in test [6], 10.5 µM. In addition, the TGI is 42.3 µM in test [7], 15.4 µM in test [8] and 3.56 µM in [9].

Turning to `Cc1cc(C#Cc2ccc(C(C)(C)C)cc2)ccc1-n1c(/C=C/c2ccc(O)cc2O)nc2ccccc2c1=O`, the GI50 was 1.49 µM in [1]; 4.37 µM in test [2]; 3.52 µM in test [3]; 2.45 µM in [4]; 3.06 µM in test [5]; 3.33 µM in test [6]. The GI50 was 2.2 µM in test [7], 2.83 µM in test [8] and 2.39 µM in [9]. For the same compound, the TGI in test [1] came to 2.87 µM; in [2], 16.5 µM; in [3], 13.5 µM; in [4] it was 10.2 µM; in [5], 9.59 µM; in test [6] it was 10.8 µM. The TGI in test [7] was 5.87 µM; in [8] it was 11.1 µM; in test [9], 9.06 µM.

Take `O=C1Nc2ccccc2N=CC1NC(=O)C(c1ccccc1)c1ccccc1` (centres undefined): the TGI in test [1], in test [2], in [3], in test [4], in test [10] and in test [6] was above 100 µM in each case. The compound also returned a TGI in test [8] above 100 µM.

As to `COCOCC/C=C/C=O`, the TGI in [1], in [2], in test [3], in test [4], in test [10] and in [6] was above 100 µM each time. For the same compound, in test [8], the TGI is above 100 µM.

As to `COC(=O)[C@@]1(C(C)CC(=O)O)CCCCC1=O` (some centres undefined), the TGI in [1], in [2], in test [3], in test [4], in [10] and in test [6] was above 100 µM each time. For the same compound, in [8], the TGI is above 100 µM.

`CN(CCNCc1ccccn1)CCNCc1ccccn1`: the GI50 in [1] was 2.48 µM; in [2] it was 2.06 µM; in [3] it was 2.18 µM; in test [4], 3.61 µM; in [10] it was 3.27 µM; in test [5], 2.56 µM. The GI50 was 3.11 µM in [6], 2.95 µM in [8] and 3.08 µM in test [9]. The TGI in test [1] was 6.88 µM; in test [2], 5.33 µM; in test [3], 4.74 µM; in test [4], above 100 µM; in test [10], 23.3 µM; in test [5] it was 5.93 µM. For the same compound, the TGI stood at 10.1 µM in test [6], 8.07 µM in test [8] and 10.9 µM in test [9].

As for `COc1cc2c(cc1OCCCCN1CCN(C(=S)SCCC(C#N)(c3ccccc3)c3ccccc3)CC1)N=C[C@@H]1CCCN1C2=O`, the GI50 was 1.69 µM in test [2]; 1.32 µM in [3]; 0.324 µM in test [10]; 1.53 µM in test [5]; 1.39 µM in test [6]; 0.435 µM in test [9]. Besides, the TGI was found to be 3.27 µM in test [2]; 3.55 µM in test [3]; 1.57 µM in test [10]; 4.73 µM in test [5]; 3.78 µM in test [6]; 2.23 µM in test [9].

Take `C[CH2][Sn]([CH2]C)([O]C(=O)c1ccccc1OC)[O][Sn]([CH2]C)([CH2]C)[O]C(=O)c1ccccc1OC`: the GI50 is 73 µM in test [1]; above 100 µM in test [2]; above 100 µM in test [3]; above 100 µM in [4]; above 100 µM in test [10]; above 100 µM in [6]. The GI50 in [8] is above 100 µM. Further, the TGI in [1], in test [2], in test [3], in [4], in [10] and in test [6] was above 100 µM throughout. The TGI in [8] is above 100 µM.

Turning to `CCCCC1(C)C=C/C(=C2/C(=O)O/C(=C\C(=O)O)C2=O)O1` (centres undefined), the TGI in [1], in [2], in test [3], in [4], in [10] and in [6] was above 100 µM throughout. The TGI in test [8] is above 100 µM.

Turning to `C[N+](C)(C)CC1CCCC1=O` (centres undefined), the TGI in [1] is 2.33 µM; in test [2], 6.05 µM; in test [3], 5.67 µM; in test [4], 4.4 µM; in test [10] it was above 20.2 µM; in test [5] it was 2.77 µM. Besides, the values for the TGI in [6], in test [7] and in test [8] were 20.6 µM, 16.6 µM and 35.7 µM, respectively.

In the case of `COc1ccc(CCC2c3cc(OC)c(OC)cc3CCN2C)cc1OC` (centres undefined), the TGI in test [1], in [2], in [3], in test [4], in test [10] and in test [6] was above 100 µM in each case. In test [8], the TGI is above 100 µM.

`C(=N/N(Cc1ccccc1)Cc1ccccc1)/c1ccccc1`: the GI50 in test [1] was above 100 µM; in test [2] it was above 100 µM; in test [3], 75 µM; in [5], above 100 µM; in test [6], above 100 µM; in test [7] it was 51.1 µM. The results for the GI50 in test [8] and in test [9] were above 100 µM and 42.9 µM, respectively. For the same compound, the TGI in test [1], in test [2], in test [3], in test [5], in [6] and in test [7] was above 100 µM throughout. Further, the TGI in test [8] and in test [9] was above 100 µM throughout.

As for `CC1(C)CC(=O)C(/C(=N/NC(=S)NN)C(=O)Nc2nc3ccc([N+](=O)[O-])cc3s2)C(=O)C1`, the TGI in test [1], in [2], in test [3], in test [4], in test [10] and in test [6] was above 100 µM each time. This compound also returned a TGI in test [8] above 100 µM.

Regarding `COc1ccc(N(CC(=O)NCCC[Te]c2ccccc2)C(=O)CNC(=O)OC(C)(C)C)cc1`, the GI50 was 2.33 µM in test [1]; 2.14 µM in test [2]; 1.65 µM in test [3]; 3.08 µM in test [4]; 2.08 µM in test [10]; 3.33 µM in test [6]. The GI50 is 2.77 µM in [7], 0.521 µM in [8] and 2.57 µM in test [9]. In addition, the TGI worked out at 5.76 µM in [1]; 4.84 µM in [2]; 3.79 µM in [3]; 9.89 µM in test [4]; 5.6 µM in test [10]; 11.4 µM in [6]. Besides, the TGI was found to be 7.31 µM in test [7], 2.17 µM in test [8] and 7.59 µM in test [9].

With `O=C(O)Cc1cccnc1`, the TGI in [1], in test [2], in [3], in test [4], in test [5] and in [6] was above 100 µM throughout. In addition, the TGI in test [7], in [8] and in test [9] was above 100 µM in each case.

In the case of `CC(C)(Br)C(=O)C(Br)Br`, the GI50 in [1] is 3.09 µM; in test [2] it was 5.42 µM; in test [3], 5.85 µM; in test [10], 6.35 µM; in test [6], 5.8 µM; in [8], 11 µM. Moreover, the TGI in test [1] was 16.8 µM and 7.13 µM; in test [2] it was > 48.2 µM and 9.97 µM; in test [3], 22.5 µM and 10.2 µM; in test [4], 5.1 µM; in test [5], 10 µM; in test [6] it was 30.8 µM and 11.7 µM. Further, the TGI in test [7] is 19.9 µM; in [8] it was 37.3 µM and 41 µM.

For `COc1cc2c(cc1OC)-c1ncc3c(OC)c(OC)c(OC)cc3c1C2`, the GI50 in test [3] was 3.84 µM; in test [10] it was 10.2 µM; in test [5], 0.404 µM; in test [6] it was 33.8 µM; in test [8], 19.1 µM; in test [9], 4.14 µM. The TGI in test [3] was 25.6 µM; in [10], above 100 µM; in test [5] it was 11.6 µM; in test [6], above 100 µM; in [8], 40.7 µM; in test [9] it was 18.7 µM.

As to `COC1C(O)C(CO)OC(OC2C(O)COC(OC3C(C)OC(OC4C(O[C@H]5CC[C@@]6(C)C(CC=C7[C@H]6CCC68C(=O)O[C@@](C)(CCCC(C)C)[C@H]6[C@@H](OC(C)=O)C[C@@]78C)C5(C)C)OCC(OS(=O)(=O)O)C4O)C(OC4OCC(O)C(O)C4O)C3O)C2O)C1O` (some centres undefined), the GI50 was 0.164 µM in test [1]; 0.215 µM in [2]; 0.175 µM in [3]; 0.153 µM in test [4]; 0.103 µM in test [5]; 0.0746 µM in test [6]. Also, the GI50 in test [7] is 0.245 µM; in test [8], 0.0568 µM; in [9] it was 0.166 µM. Moreover, the TGI in test [1] was determined as 0.357 µM; in test [2], 0.606 µM; in [3] it was 0.353 µM; in test [4] it was 0.368 µM; in test [5] it was 0.325 µM; in [6], 0.193 µM. The TGI in test [7] came out at 0.598 µM; in test [8], 0.209 µM; in test [9], 0.431 µM.

In the case of `O=C(Nc1cccc(-n2cc(-c3ccncc3)c(-c3cc(O)cc(Cl)c3)n2)c1)c1cc(C(F)(F)F)cc(C(F)(F)F)c1`, the GI50 in test [1] is 3.29 µM; in test [2] it was 5.01 µM; in test [3] it was 3.79 µM; in test [4] it was 2.38 µM; in test [5] it was 1.42 µM; in test [7], 6.38 µM. Besides, the GI50 in test [8] was 2.62 µM; in [9] it was 2.86 µM. Further, the TGI was 13.7 µM in test [1]; 51.7 µM in [2]; 22.4 µM in test [3]; above 100 µM in [4]; 3.32 µM in test [5]; above 100 µM in test [7]. Also, the TGI in test [8] and in test [9] was above 100 µM each time.

With `CC(C)=CC(=O)N(C)C1C2CN3CCC(O2)C13` (centres undefined), the TGI in test [1], in [2], in test [3], in test [4], in test [10] and in [6] was above 100 µM throughout. This compound had a TGI in test [8] above 100 µM.

Consider `O=C(c1nc2ccccc2[nH]c1=O)C(O)c1ccccc1` (centres undefined), for which the TGI in test [1], in test [2], in test [3], in test [4], in [10] and in test [6] was above 100 µM each time. In addition, in test [8], the TGI was above 100 µM.

As to `O=C(O)/C=C/c1nc2ccccc2c(=O)o1`, the TGI in [1], in test [2], in test [3], in [4], in [10] and in test [6] was above 100 µM throughout. In test [8], this compound yielded a TGI above 100 µM.

(Values after PubChem BioAssay (NCI).)
